Source: patent publication US10577634B2, “Bioconversion process for producing nylon-7, nylon-7,7 and polyesters” (INVISTA North America S.A.R.L., priority 2011, dated 2020)

What was measured:
[1] = molecular target: T1, Nocardia sp. carboxylic acid reductase (CAR) (Nocardia iowensis, UniProt Q6RKB1); experiment: Spectrophotometric carboxylic acid reductase (CAR) activity assay, change in absorbance at 340 nm; format: biochemical; conditions: for Adjusted for background: gradient of change in absorbance at 340 nm adjusted for background; for gradient of trend line: rate of change in absorbance at 340 nm, CAR cell free extract, substrate added after 2 minutes; for Relative rate % compared to benzoate: relative rate of change in absorbance at 340 nm
T1 construct: made in house; host or cells: E. coli BL-21 (DE3) RP1pPV2-85; cell free extract
T1 sequence (Q6RKB1 1-1174): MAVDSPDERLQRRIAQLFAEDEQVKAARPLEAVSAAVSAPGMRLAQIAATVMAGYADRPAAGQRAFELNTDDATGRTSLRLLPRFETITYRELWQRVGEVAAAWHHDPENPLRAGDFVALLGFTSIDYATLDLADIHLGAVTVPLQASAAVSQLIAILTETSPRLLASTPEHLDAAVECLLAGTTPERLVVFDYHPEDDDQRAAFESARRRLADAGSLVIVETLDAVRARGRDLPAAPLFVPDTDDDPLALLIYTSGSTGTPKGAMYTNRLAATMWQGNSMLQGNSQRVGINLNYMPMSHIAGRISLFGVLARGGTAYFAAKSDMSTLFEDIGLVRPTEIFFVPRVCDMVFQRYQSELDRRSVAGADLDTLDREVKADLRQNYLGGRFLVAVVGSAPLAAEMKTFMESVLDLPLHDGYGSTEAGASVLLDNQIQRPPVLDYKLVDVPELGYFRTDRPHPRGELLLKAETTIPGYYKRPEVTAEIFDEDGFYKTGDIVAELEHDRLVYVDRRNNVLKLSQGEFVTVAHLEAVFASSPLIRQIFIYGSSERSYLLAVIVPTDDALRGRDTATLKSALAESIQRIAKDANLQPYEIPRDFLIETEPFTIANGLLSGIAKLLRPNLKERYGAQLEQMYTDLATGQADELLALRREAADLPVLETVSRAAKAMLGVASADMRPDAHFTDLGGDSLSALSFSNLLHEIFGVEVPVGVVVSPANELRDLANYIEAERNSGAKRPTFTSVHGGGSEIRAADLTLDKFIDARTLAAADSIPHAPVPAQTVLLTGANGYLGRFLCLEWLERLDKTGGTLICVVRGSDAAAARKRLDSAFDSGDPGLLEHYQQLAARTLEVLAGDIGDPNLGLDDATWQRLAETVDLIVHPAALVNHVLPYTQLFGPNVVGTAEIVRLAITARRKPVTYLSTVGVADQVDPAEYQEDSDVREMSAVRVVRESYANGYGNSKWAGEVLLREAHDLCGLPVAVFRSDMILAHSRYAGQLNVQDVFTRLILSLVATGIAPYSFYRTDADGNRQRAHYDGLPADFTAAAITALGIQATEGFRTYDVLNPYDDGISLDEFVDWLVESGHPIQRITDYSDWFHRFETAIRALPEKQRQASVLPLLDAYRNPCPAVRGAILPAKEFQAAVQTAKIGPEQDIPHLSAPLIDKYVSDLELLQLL
Description: The conditions for the assay were taken from Applied and Environmental Microbiology 2004, 70, p 1874-1881.
In a quartz cuvette the following reagents were added: 100 μL MgCl2, 100 μL, ATP, 100 μL NADPH, 200 μL Tris.HCl buffer. The absorbance at 340 nm was measured and recorded and 100 μL of CAR cell free extract was added. The absorbance was monitored and recorded. […] The absorbance monitored over time was subtracted from the initial measurement.

[2] = molecular target: T2, AAR acyl-ACP reductase (YP_400611) (Synechococcus elongatus, UniProt Q54765); conditions: substrate of AAR, octadecanal formed, NADPH-dependent; cited from earlier work
T2 construct: host or cells: E. coli MG1655
T2 sequence (Q54765 1-341): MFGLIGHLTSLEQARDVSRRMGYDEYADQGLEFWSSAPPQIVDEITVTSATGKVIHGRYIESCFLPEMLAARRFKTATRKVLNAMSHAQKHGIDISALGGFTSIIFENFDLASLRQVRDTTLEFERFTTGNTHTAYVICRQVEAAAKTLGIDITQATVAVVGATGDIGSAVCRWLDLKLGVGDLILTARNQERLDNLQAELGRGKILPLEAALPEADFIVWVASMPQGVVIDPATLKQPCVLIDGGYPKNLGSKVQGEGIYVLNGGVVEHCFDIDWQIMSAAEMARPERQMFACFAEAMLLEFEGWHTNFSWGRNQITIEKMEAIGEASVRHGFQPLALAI

[3] = test system: PauA catabolic pimeloyl-CoA ligase; conditions: substrate accepted by PauA, pimelate = 100%; cited from earlier work
[4] = molecular target: T3, Amino adipate aminotransferase (Q64602) (Bos taurus, UniProt Q5E9N4); conditions: in the presence of pimelic acid; cited from earlier work
T3 construct: Purification and properties of 2-aminoadipate: 2-oxoglutarate aminotransferase from bovine kidney; host or cells: bovine kidney

[5] = molecular target: T4, ACOT8 peroxisomal acyl-CoA thioesterase 8 (Mus musculus, UniProt P58137); conditions: inhibition of ACOT8; cited from earlier work
T4 construct: His-Tag; host or cells: E. coli
T4 sequence (P58137 1-320): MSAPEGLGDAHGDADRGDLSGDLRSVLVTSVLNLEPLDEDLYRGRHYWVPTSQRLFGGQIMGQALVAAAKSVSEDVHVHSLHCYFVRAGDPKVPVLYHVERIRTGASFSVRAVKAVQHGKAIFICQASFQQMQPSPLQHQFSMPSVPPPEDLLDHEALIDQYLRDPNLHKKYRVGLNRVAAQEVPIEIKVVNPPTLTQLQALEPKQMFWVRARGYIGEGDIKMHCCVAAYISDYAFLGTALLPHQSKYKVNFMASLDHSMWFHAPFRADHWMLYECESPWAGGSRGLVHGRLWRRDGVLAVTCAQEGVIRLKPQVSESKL

ACOT3 (formerly PTE-1a) = molecular target: T5, ACOT3 (formerly PTE-1a) (Mus musculus, UniProt Q9QYR7); conditions: free CoASH; cited from earlier work
T5 construct: His-tag; host or cells: E. coli
T5 sequence (Q9QYR7 1-432): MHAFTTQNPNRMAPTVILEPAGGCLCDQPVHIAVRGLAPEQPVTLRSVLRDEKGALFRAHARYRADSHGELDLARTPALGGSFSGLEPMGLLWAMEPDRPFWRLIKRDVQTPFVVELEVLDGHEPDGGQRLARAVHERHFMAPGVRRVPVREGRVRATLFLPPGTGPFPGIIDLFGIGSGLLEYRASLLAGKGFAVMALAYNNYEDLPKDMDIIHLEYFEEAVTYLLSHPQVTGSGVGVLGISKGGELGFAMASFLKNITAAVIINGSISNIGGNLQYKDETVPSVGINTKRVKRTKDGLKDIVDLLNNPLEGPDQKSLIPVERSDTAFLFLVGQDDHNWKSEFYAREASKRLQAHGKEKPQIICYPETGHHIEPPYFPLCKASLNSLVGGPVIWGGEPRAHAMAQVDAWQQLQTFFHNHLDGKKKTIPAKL

[6] = molecular target: T6, ACOT4 peroxisomal acyl-CoA thioesterase 4 (Mus musculus, UniProt Q8BWN8); conditions: CoASH at concentrations up to 500 μM; cited from earlier work
T6 construct: His-tag; host or cells: E. coli
T6 sequence (Q8BWN8 1-421): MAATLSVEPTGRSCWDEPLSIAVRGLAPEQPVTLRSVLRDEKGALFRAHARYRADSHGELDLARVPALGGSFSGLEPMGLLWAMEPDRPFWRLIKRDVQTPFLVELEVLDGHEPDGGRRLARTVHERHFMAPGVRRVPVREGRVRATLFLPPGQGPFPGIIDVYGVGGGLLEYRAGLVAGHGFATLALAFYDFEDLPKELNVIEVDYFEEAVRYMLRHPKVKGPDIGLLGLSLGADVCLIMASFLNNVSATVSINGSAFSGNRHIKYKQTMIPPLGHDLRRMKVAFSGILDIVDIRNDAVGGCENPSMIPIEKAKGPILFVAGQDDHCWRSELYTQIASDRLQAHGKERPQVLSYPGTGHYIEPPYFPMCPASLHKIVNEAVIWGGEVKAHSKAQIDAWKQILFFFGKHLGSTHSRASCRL

ACOT5 (formerly PTE-1c) = molecular target: T7, ACOT5 (formerly PTE-1c) (Mus musculus, UniProt Q6Q2Z6); conditions: free CoASH; cited from earlier work
T7 construct: His-tag; host or cells: E. coli
T7 sequence (Q6Q2Z6 1-421): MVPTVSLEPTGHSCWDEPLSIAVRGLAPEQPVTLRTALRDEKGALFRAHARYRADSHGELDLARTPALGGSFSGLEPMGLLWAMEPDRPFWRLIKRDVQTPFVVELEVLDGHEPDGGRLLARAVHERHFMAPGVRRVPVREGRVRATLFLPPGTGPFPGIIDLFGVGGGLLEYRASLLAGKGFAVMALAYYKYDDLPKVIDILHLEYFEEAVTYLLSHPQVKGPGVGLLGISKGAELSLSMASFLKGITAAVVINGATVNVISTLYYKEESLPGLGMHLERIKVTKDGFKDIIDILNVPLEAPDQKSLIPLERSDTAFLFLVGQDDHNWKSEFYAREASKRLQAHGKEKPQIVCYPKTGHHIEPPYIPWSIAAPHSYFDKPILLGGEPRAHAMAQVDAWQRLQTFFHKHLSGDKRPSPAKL

T3 sequence (Q5E9N4 30-425, one chain of several): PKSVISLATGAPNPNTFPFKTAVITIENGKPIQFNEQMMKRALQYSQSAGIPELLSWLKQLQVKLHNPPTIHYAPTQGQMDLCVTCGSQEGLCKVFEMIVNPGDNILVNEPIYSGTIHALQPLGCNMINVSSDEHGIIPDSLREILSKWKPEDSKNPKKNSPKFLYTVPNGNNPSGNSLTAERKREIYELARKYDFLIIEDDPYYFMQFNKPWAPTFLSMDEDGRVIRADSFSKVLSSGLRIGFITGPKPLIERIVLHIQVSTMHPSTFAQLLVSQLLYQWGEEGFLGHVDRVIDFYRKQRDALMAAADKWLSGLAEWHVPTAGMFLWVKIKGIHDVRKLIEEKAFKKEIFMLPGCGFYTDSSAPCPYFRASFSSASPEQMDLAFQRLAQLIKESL

## O=C([O-])CCCCCC(=O)[O-].[Na+].[Na+] [sodium pimelate]
[1]
  Adjusted for background: 0.0068
  gradient of trend line: 0.0076
  Relative rate % compared to benzoate: 51.1%

## O=C([O-])c1ccccc1.[Na+] [sodium benzoate]
[1]
  Adjusted for background: 0.00133
  gradient of trend line: 0.0141
  Relative rate % compared to benzoate: 100%

## oleoyl-ACP
[2]
  Km: 8 µM

## O=C(O)CCCCCC(=O)O [pimelic acid]
[3]
  relative activity: 100%
[4]
  reduction in activity: 30%
[1]; reduction to pimelic acid semialdehyde by CAR from Nocardia
  activity relative to the activity for benzoic acid: > 50%

## CCCCCCCC/C=C\CCCCCCCC(=O)SCCNC(=O)CCNC(=O)[C@H](O)C(C)(C)COP(=O)(O)OP(=O)(O)OC[C@H]1O[C@@H](n2cnc3c(N)ncnc32)[C@H](O)[C@@H]1OP(=O)(O)O [oleoyl-CoA]
[2]
  Km: 130 µM

## CC(C)(COP(=O)(O)OP(=O)(O)OC[C@H]1O[C@@H](n2cnc3c(N)ncnc32)[C@H](O)[C@@H]1OP(=O)(O)O)[C@@H](O)C(=O)NCCC(=O)NCCS [CoASH]
[5]
  IC50: 10 to 15 µM
ACOT3 (formerly PTE-1a)
  inhibition: no inhibition
[6]
  inhibition of the reaction: not inhibited
ACOT5 (formerly PTE-1c)
  inhibition: no inhibition
